Experiments:
PERV pol gene = experiment: PERV pol targeting (editing) efficiency in FFF3 cells, deep sequencing of PERV pol loci; type: cell-based, porcine; settings: for average targeting efficiency (PERV editing efficiency) of FFF3 populations: applied during genetic modification with CRISPR-Cas9
Method: Similar to the procedure previously described by Yang et al, 2015, Science, 80:350, a DNA fragment encoding U6-gRNA1-U6-gRNA2 (Genewiz) was synthesized and incorporated into a previously constructed PiggyBac-cas9 plasmid. To establish the FFF3 cell lines with PiggyBac-Cas9/2gRNAs integration, 5×10^5 FFF3 cells were transfected with 16 μg PiggyBac-Cas9/2gRNAs plasmid and 4 μg Super PiggyBac Transposase plasmid (System Biosciences) using the Neon transfection system according to the instructions in the commercial kits (Thermo Fisher Scientific). To select the cells carrying the integrated construct, 2 μg/mL puromycin was applied to the transfected cells. Based on the negative control, in which puromycin was applied to wild type FFF3 cells, it was determined that the puromycin selection was completed in 4 days. The FFF3-PiggyBac cell line was maintained with 2 μg/mL puromycin hereafter and a 2 μg/ml doxycycline was applied to induce Cas9 expression of the doxycycline-inducible FFF3-PiggyBac cell line.
To avoid the Cas9-consistent expression in the FFF3 cell line, PiggyBac-Cas9/2gRNAs excision from the FFF3 genome was conducted by transfecting 5×10^5 cells with 3 μg PiggyBac Excision-Only Transposase vector using Lipofectamine 2000 reagent. The PiggyBac-Cas9/2gRNAs-excised FFF3 cells were then single-cell sorted into 96-well plates for clone growth and genotyping.
First, puromycin selection followed by PiggyBac excision was conducted on the FFF3, PiggyBac-Cas9/2gRNA cell line. Then the cells were single-cell sorted into both 96-well PCR plates for direct genotyping and 96-well cell culture plates for colony growth.
To genotype single FF cells without clonal expansion, the PERV loci from sorted single cells were directly amplified according to a previously reported single-cell genotyping protocol. Briefly, the single cells were sorted into 96-well PCR plates with each well carrying a 5 μl lysis mixture, which contained 0.51 μl 10×KAPA express extract buffer (KAPA Biosystems), 0.1 μl of 1 U/μl KAPA Express Extract Enzyme and 4.6 μl water. The lysis reaction was incubated at 75° C. for 15 min and the reaction was subsequently inactivated at 95° C. for 5 min. All reactions were then added to 20 μl PCR reactions containing 1×KAPA 2G fast (KAPA Biosystems), 0.2 μM PERV Illumina primers (Methods Table 2). Reactions were incubated at 95° C. for 3 min followed by 25 cycles of 95° C., 20 s; 59° C., 20 s and 72° C., 10 s. To add the Illumina sequence adaptors, 3 μl of reaction products were then added to 20 μl of PCR mix containing 1×KAPA 2G fast(KAPA Biosystems) and 0.3 μM primers carrying Illumina sequence adaptors. Reactions were incubated at 95° C. for 3 min followed by 10 cycles of 95° C., 20 s; 59° C., 20 s and 72° C., 10 s. PCR products were checked on EX 2% gels (Invitrogen), followed by the recovery of 300-400 bp products from the gel. These products were then mixed at roughly the same amount, purified (QIAquick Gel Extraction Kit), and sequenced with MiSeq Personal Sequencer (Illumina). Deep sequencing data was analyzed, and the PERV editing efficiency using CRISPR-GA was determined (Denner et al., 2016, Viruses, 8:215).
As previously described in Yang et al. (6), a custom pipeline was built to estimate the efficiency of PERV inactivation. Briefly, the pol gene was amplified and sequenced via Illumina Next Generation Sequencing using PE250 or PE300. First, the two overlapping reads using PEAR (15) were combined and mapped to the reference region using BLAT. After mapping, the reads were grouped into sets containing specific combinations of haplotypes, and indel types. Read sets with representation lower than 0.5% of the total number of mapped reads were discarded. Finally, the mapping output was parsed to call the different insertions and deletions, as described in Güell et al (16).

[1] = clones grown from sorted single cells

Cc1ccc(C(=O)Cn2c3c(sc2=N)CCCC3)cc1 [PFTα, pifithrin alpha, reference compound]
average targeting efficiency (PERV editing efficiency) of FFF3 populations (PERV pol gene): did not increased

Bcl-2: an apoptosis inhibitor, over-expressed
PERV targeting efficiency among treatments with different dosages (PERV pol gene; FFF3 cells, seven days of treatment): No significant difference
average targeting efficiency (PERV editing efficiency) of FFF3 populations (PERV pol gene): did not increase
cytotoxicity (FFF3 cells): Dose-dependent cytotoxicity

basic fibroblast growth factor [bFGF]
average targeting efficiency (PERV editing efficiency) of FFF3 populations (PERV pol gene): did not increased

B1: SV40 large T antigen: transiently over-expressed inhibitor of both p53 and Rb pathways (protein, UniProt P03070 1-708, looked up)
Large T antigen: MDKVLNREESLQLMDLLGLERSAWGNIPLMRKAYLKKCKEFHPDKGGDEEKMKKMNTLYKKMEDGVKYAHQPDFGGFWDATEIPTYGTDEWEQWWNAFNEENLFCSEEMPSSDDEATADSQHSTPPKKKRKVEDPKDFPSELLSFLSHAVFSNRTLACFAIYTTKEKAALLYKKIMEKYSVTFISRHNSYNHNILFFLTPHRHRVSAINNYAQKLCTFSFLICKGVNKEYLMYSALTRDPFSVIEESLPGGLKEHDFNPEEAEETKQVSWKLVTEYAMETKCDDVLLLLGMYLEFQYSFEMCLKCIKKEQPSHYKYHEKHYANAAIFADSKNQKTICQQAVDTVLAKKRVDSLQLTREQMLTNRFNDLLDRMDIMFGSTGSADIEEWMAGVAWLHCLLPKMDSVVYDFLKCMVYNIPKKRYWLFKGPIDSGKTTLAAALLELCGGKALNVNLPLDRLNFELGVAIDQFLVVFEDVKGTGGESRDLPSGQGINNLDNLRDYLDGSVKVNLEKKHLNKRTQIFPPGIVTMNEYSVPKTLQARFVKQIDFRPKDYLKHCLERSEFLLEKRIIQSGIALLLMLIWYRPVAEFAQSIQSRIVEWKERLDKEFSLSVYQKMKFNVAMGIGVLDWLRNSDDDDEDSQENADKNEDGGEKNMEDSGHETGIDSQSQGSFQAPQSSQSVHDHNQPYHICRGFTCFKKPPTPPPEPET
average targeting efficiency (PERV editing efficiency) of FFF3 populations (PERV pol gene): increased
increase of the ratio of >80% PERV-ko clones compared with the untreated group (PERV pol gene; [1]): 3.75 folds
increase of the ratio of >90% PERV-ko clones compared with the untreated group (PERV pol gene; [1]): 5.06 folds

— US12058986B2, “Method for generating a genetically modified pig with inactivated porcine endogenous retrovirus (PERV) elements” (eGenesis, Inc., priority 2017, dated 2024)
